The values that follow come from ChEMBL document CHEMBL1201862, “PubChem BioAssay data set” (2004).

What all share (experiment): growth of human tumour cells (NCI), 48 h
Assay [1] relates to MDA-MB-435.
The test system of assay [2] is NCI-H226.
Assay [3] deals with SK-MEL-28.
Assay [4] concerns UACC-62.
For assay [5], the system named is NCI-H23.
For assay [6], the system named is SF-295.
In assay [7] the test system is CAKI-1.
Assay [8] concerns K562.
Assay [9] deals with SNB-75.
The subject of assay [10] is HOP-62.
The subject of assay [11] is 786-0.
In assay [12] the test system is HCT-116.
The subject of assay [13] is SF-268.
Assay [14] has as its system RPMI-8226.
In assay [15] the test system is SK-MEL-2.
Assay [16] concerns OVCAR-3.
Assay [17] relates to SNB-19.
The test system of assay [18] is IGROV-1.
Assay [19] deals with NCI-H522.
Assay [20] deals with MDA-N.

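Dose response: 5 concentrations. Exposure: 48 h. Format: 96-well plates. Endpoint: linear interpolation; highest concentration if not reached. At the GI50, growth is halved.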 Calls of active or inactive are those of the source. Cut-off read from the data, not from the text of the source: active = GI50 up to about 1.1 µM and inactive = higher.

Regarding `CCOC(=O)C1(Cc2c[nH]c3ccccc23)C(O)CCCN1C(C)=O` (stereo not given), the GI50 in assay [1], in [2], in assay [3], in assay [4], in assay [5] and in assay [6] was > 100 µM (inactive) in each case. In addition, the GI50 in assay [7], in assay [8], in assay [9], in assay [10], in assay [11] and in assay [12] was > 100 µM (inactive) in each case. In addition, the GI50 in assay [13], in [14], in [15], in assay [16], in [17] and in [18] was > 100 µM (inactive) each time.

In the case of `O=C(NC(C(F)(F)F)(C(F)(F)F)P(=O)(Cc1ccccc1)Cc1ccccc1)C(C(F)(F)F)C(F)(F)F`, the GI50 was 17.4 µM (inactive) in [1]; 13.4 µM (inactive) in assay [2]; 25.6 µM (inactive) in assay [3]; 27.2 µM (inactive) in [4]; 19.7 µM (inactive) in assay [5]; 20.7 µM (inactive) in [6]. Also, the GI50 was 52.4 µM (inactive) in assay [7]; 23 µM (inactive) in assay [8]; 20.6 µM (inactive) in assay [10]; 17.2 µM (inactive) in assay [11]; 17.3 µM (inactive) in assay [12]; 23.3 µM (inactive) in assay [13]. The GI50 was 25.2 µM (inactive) in assay [14]; 26.4 µM (inactive) in assay [15]; 26.2 µM (inactive) in assay [19]; 19.5 µM (inactive) in assay [20]; 31.6 µM (inactive) in assay [16]; 27.7 µM (inactive) in assay [17]. The GI50 in assay [18] was 18.5 µM (inactive).

Turning to `C[C@H]1CC[C@@H]2[C@@H](C)[C@H]3[C@H](C[C@H]4[C@@H]5CC=C6C[C@@H](O)CC[C@]6(C)[C@H]5CC[C@]34C)N2C1`, the GI50 was 89.7 µM (inactive) in [1]; 14.6 µM (inactive) in assay [2]; 47.1 µM (inactive) in assay [3]; 43 µM (inactive) in assay [4]; 88.5 µM (inactive) in [5]; 40.6 µM (inactive) in assay [6]. The GI50 was 41.1 µM (inactive) in [7]; 31.4 µM (inactive) in [10]; 30.4 µM (inactive) in assay [11]; 36.4 µM (inactive) in assay [12]; > 100 µM (inactive) in assay [13]; 26.3 µM (inactive) in assay [14]. The GI50 was > 100 µM (inactive) in assay [15]; 42.6 µM (inactive) in assay [19]; > 100 µM (inactive) in assay [20]; > 100 µM (inactive) in assay [16]; 97.9 µM (inactive) in [17]; 27.9 µM (inactive) in assay [18].

Regarding `O=C(O)C(/C=C/c1ccccc1)c1ccccc1` (stereo not given), the GI50 in [2] was > 100 µM (inactive); in assay [3], > 100 µM (inactive); in assay [4], > 100 µM (inactive); in assay [5] it was > 100 µM (inactive); in assay [6], > 100 µM (inactive); in assay [8], 84.3 µM (inactive). The GI50 in assay [9], in assay [10], in assay [11], in assay [12], in assay [13] and in assay [14] was > 100 µM (inactive) in each case. Besides, the GI50 in assay [15] was > 100 µM (inactive); in assay [19], 69.7 µM (inactive); in [20], > 100 µM (inactive); in [16], > 100 µM (inactive); in assay [17], > 100 µM (inactive); in [18] it was > 100 µM (inactive).

For the compound `CS(=O)(=O)OCC1CCCCCCCCCCC12SCCCS2` (stereo not given), the GI50 in [1], in [2], in assay [3], in assay [4], in [5] and in [6] was > 100 µM (inactive) each time. The GI50 in assay [7], in assay [8], in assay [10], in assay [11], in assay [12] and in [13] was > 100 µM (inactive) each time. Also, the GI50 in assay [15], in assay [19], in [20], in assay [16], in assay [17] and in assay [18] was > 100 µM (inactive) throughout.

Take `O=C(O)CCC(=O)Nc1ccc2c(c1)S(=O)(=O)N(CC(=O)O)C2=O`: the GI50 in assay [1], in [2], in assay [3], in assay [4], in [5] and in assay [6] was > 100 µM (inactive) throughout. Moreover, the GI50 in [7], in assay [8], in assay [10], in assay [11], in [12] and in assay [14] was > 100 µM (inactive) each time. For the same compound, the GI50 in assay [15], in assay [19], in assay [20], in assay [16], in assay [17] and in [18] was > 100 µM (inactive) throughout.

For the compound `O=Cc1cn(CCCCCCCCCCCCn2cc(C=O)c3ccccc32)c2ccccc12`, the GI50 in [1] is 5.22 µM (inactive); in [2] it was 57.3 µM (inactive); in assay [3], > 100 µM (inactive); in assay [4], > 100 µM (inactive); in assay [5] it was 3.53 µM (inactive); in assay [6], 3.56 µM (inactive). Also, the GI50 was > 100 µM (inactive) in assay [7]; 0.615 µM (active) in assay [8]; > 100 µM (inactive) in assay [10]; > 100 µM (inactive) in assay [11]; 2.25 µM (inactive) in [12]; > 100 µM (inactive) in assay [13]. The GI50 in [15] was > 100 µM (inactive); in assay [19] it was 38.3 µM (inactive); in assay [20], > 100 µM (inactive); in [16], > 100 µM (inactive); in [17] it was > 100 µM (inactive); in assay [18], > 100 µM (inactive).

For `COc1cc2c(c(N)c1OC)C(=O)/C(=C/c1cc(C)c(O)c(C)c1)C2`, the GI50 in assay [1] is < 0.01 µM (active); in assay [2], 4.19 µM (inactive); in assay [4], < 0.01 µM (active); in [5] it was < 0.01 µM (active); in assay [6], 0.0562 µM (active); in assay [7], 4.25 µM (inactive). The GI50 in [8] is < 0.01 µM (active); in assay [10] it was < 0.0176 µM (active); in assay [11] it was < 0.01 µM (active); in assay [12], < 0.01 µM (active); in assay [13] it was < 0.01 µM (active); in assay [14], < 0.01 µM (active). Further, the GI50 in [19] was < 0.01 µM (active); in assay [20] it was < 0.01 µM (active); in assay [16], < 0.01 µM (active); in [17] it was < 0.01 µM (active); in assay [18], 0.0367 µM (active).

Consider `O=[N+]([O-])c1sc2ccc(Cl)cc2c1Nc1ccc(Cl)cc1`, for which the GI50 in assay [1], in [2], in assay [3], in assay [4], in assay [5] and in assay [6] was > 100 µM (inactive) each time. Further, the GI50 in [8], in assay [9], in assay [10], in [11], in assay [13] and in assay [14] was > 100 µM (inactive) each time. Further, the GI50 in assay [15], in assay [19], in [16], in assay [17] and in [18] was > 100 µM (inactive) each time.

Consider `NC(=O)/N=C(\N)NC(=O)c1ccccc1`, for which the GI50 in assay [1], in assay [2], in assay [3], in assay [4], in assay [5] and in [6] was > 100 µM (inactive) throughout. Also, the GI50 in assay [7], in assay [8], in assay [10], in assay [11], in assay [12] and in assay [15] was > 100 µM (inactive) in each case. Also, the GI50 in assay [19], in assay [20], in assay [16], in [17] and in assay [18] was > 100 µM (inactive) throughout.

Take `CCCCP(CCCC)(CCCC)=C(C(=O)OC)C(C(=O)OC)=C1SC(C(=O)OC)=C(C(=O)OC)S1`: the GI50 in [1] was 14.8 µM (inactive); in [2] it was 20 µM (inactive); in [3] it was 15.5 µM (inactive); in [4], 14.1 µM (inactive); in assay [5], 17.5 µM (inactive); in assay [6] it was 19.3 µM (inactive). The GI50 in [9] is 17.5 µM (inactive); in assay [10], 20.4 µM (inactive); in [11], 17.8 µM (inactive); in assay [12], 12 µM (inactive); in [13], 30.6 µM (inactive); in assay [14], 63.2 µM (inactive). Moreover, the GI50 in [15] is 26.2 µM (inactive); in [19], 17.7 µM (inactive); in [16] it was 19.3 µM (inactive); in [17], 20.3 µM (inactive); in [18], 11.6 µM (inactive).
